The text below walks through data of patent US5504098A, “Benzothiazolesulfonamide derivative, method for preparing the same, and use thereof” (Asahi Kasei Kogyo Kabushiki Kaisha, priority 1993, dated 1996).

The test system of one experiment is bronchial smooth muscle. The conditions noted are these: disclosed in WO92/14712; cited from earlier work.
Experiment [1] concerns the target T1, Myosin light chain kinase (MLCK) (Gallus gallus, UniProt P11799).
T1 construct: MLCK was isolated and purified by the method according to Walsh et al; from tissue
The experiment is described as follows: Measurement of the activity to inhibit Myosin light chain kinase (MLCK). The conditions noted are these: for Ki: ATP 20, 30, 50 and 100 μM, double reciprocal plotting, substrate MLC from chicken gizzard, read-out: MLCK inhibiting activity in terms of Ki value. Format: biochemical. The protocol:
Each of compounds 1 to 10 was used as an inhibitor for MLCK. As a comparative compound, 1- 2-(6-benzothiazolesulfonylamino)ethyl!-4- 3-(phenoxy)propyl!piperazine dihydrochloride disclosed in International Patent Application Publication No. WO92/14712 was used. Measurement of an MLCK inhibiting activity of each of compounds 1 to 10 was conducted utilizing the reaction system of MLCK and an antibody specific for phosphorylated myosine light chain (MLCP). MLC was isolated from a chicken gizzard and purified by the method according to Perry et al. (Journal of Biochemistry, vol. 211, p.267-272, 1983), to thereby obtain 20 kDa of purified MLC. On the other hand, MLCK was isolated and purified by the method according to Walsh et al. (Methods in Enzymology, vol. 99, p.279-288, 1983). Calmodulin was isolated from a pig brain and purified by the method according to Yazawa (Journal of Biochemistry, vol. 87, p.1313-1320, 1980). Further, anti-MLCP antibody was prepared by using, as an antigen, a synthetic peptide which has an amino acid sequence of an MLCP amino acid fragment of 12 amino acid residues containing a serine residue (phosphorylation site of MLCP). […] The synthetic peptide was subjected to phosphorylation by MLCK in the presence of ATP, followed by purification by high performance liquid chromatography. The purified peptide was conjugated with key hole limpet hemocyanin (KLH). The conjugation efficiency thereof was 110-148 nmol peptide/mg KLH. 0.2 mg of the KLH-conjugated peptide was mixed with an adjuvant and injected to a rabbit. The injection was conducted four more times, to thereby immunize the […]. An anti-MLCP antibody was obtained from the […], and the antibody titer thereof was examined. With respect to the anti-MLCP antibody having a satisfactorily high antibody titer, an IgG fraction (anti-MLCP IgG) was obtained and purified. Measurement of the MLCK activity was conducted as follows. MLC was diluted with a phosphate buffer (PBS) to obtain a solution having a MLC concentration of 5 μg/ml. 100 μl of the solution was added to each well of 96-well immunoplate, and was allowed to stand overnight at 4° C., to thereby immobilize the MLC on the surface of each well. Each plate was washed with PBS to thereby remove the MLC which had not been immobilized. To each of the MLC-immobilized wells was added a solution containing 25 mM Tris buffer (pH 7.5), 3 mM magnesium chloride, 1 mM calcium chloride, 0.1% of 2-mercaptoethanol, 1 mg/ml bovine serum albumin, 20 μg/ml calmoduline, 0.1 μg/ml MLCK, and 20 μM of ATP, thereby initiating the reaction. Substantially the same reaction as mentioned above was repeated three more times, except that the ATP concentration was changed to 30, 50 and 100 μM. 3 Minutes after the initiation of each of the reactions, 100 μl of an aqueous 20% phosphoric acid solution was added to each well of the individual plates to terminate the reaction. Each well was washed three times with PBS containing 0.2% of Triton X-100 (TrPBS). As a primary antibody, 100 μl of anti-MLCP antibody which had been diluted 500-fold with PBS containing 0.05% Tween 20 (TwPBS) was added to each of the washed wells, and allowed to stand at room temperature for 1 hour. Each well was washed with TrPBS three times. Then, as a secondary antibody, 100 μl of peroxydase-labeled anti-rabit IgG antibody (manufactured and sold by Cappel Co., Ltd., Germany) which had been diluted 1000-fold with TwPBS was added to each well, and allowed to stand at room temperature for 1 hour. Each well was washed with TrPBS three times. To each well was added 100 μ l of a coloring agent containing 2 mg/ml orthophenylenediamine and an aqueous 0.04% hydrogen peroxide solution. When the coloring proceeded satisfactorily, 30 μl of 4.5M sulfuric acid was added to each well to terminate the reaction. The absorbance of the reaction mixture in each well was determined using a microplate reader (manufactured and sold by Bio-Rad laboratories, U.S.A.). […]

For experiment [2], the system named is tracheal specimens excised from guinea pigs (bronchial smooth muscle). The experiment is described as follows: Inhibitory effect on KCl-induced contraction of tracheal specimens excised from guinea pigs. More on the design: species or system guinea pig. As to conditions: for Emax: Cavia porcellus, 20 mM KCl-induced contraction, maximum relaxation with 100 μM papaverine = 100%, 37 °C, 3 specimens, cumulative addition, read-out: Bronchial smooth muscle-relaxation ratio. The text has this: According to a method in which tracheal specimens excised from guinea pigs were used (Takagi and Ozawa, "Yakubutsugaku Jikken (Experiments in Pharmacology)", p.100-102, 1960, published by Nanzando, Japan; and Fujiwara and Shibata, "Yakurigaku Kiso Jikenho (Methods of Fundamental Experiments in Pharmacology)" p.131-134, 1982, published by Kyourin, Japan), the relaxing effect of benzothiazolesulfonamide derivatives of the present invention (compounds 1 to 10) on bronchial smooth muscle was evaluated. From male guinea pigs weighing 350 to 500 g (Hartley strain, Kuroda Junkei Dobutsu), tracheas were excised and each of the excised tracheal specimens was hung in a 20 ml Magnus tube filled with Krebs-Henseleit solution containing 3 μM indomethacin under isometric conditions (initial load: 1.5 g). The solution temperature was kept at 37 ° C. in an atmosphere containing 95% O2 and 5% CO2. […] On the other hand, each of the compounds of the present invention was dissolved in distilled water or physiological saline and, after the KCl-induced contraction became stable, the compound solution was cumulatively added into the Magnus tube. The relaxing effect of each of the compounds of the present invention on contracted tracheal specimens was evaluated and a dose-response curve was obtained. After the evaluation of the relaxing effect, 100 μM of papaverine was individually added into the Magnus tubes, to thereby obtain a maximum relaxation value. Taking the obtained maximum relaxation value as 100%, the relaxation ratio was calculated with respect to each of thee compounds of the present invention. The number of specimens tested for each compound was 3. As a comparative compound, 1- 2-(6-benzothiazolesulfonylamino)ethyl!-4- 3-(phenoxy)propyl!piperazine […] disclosed in International Patent Application Publication No. WO92/14712 was used. (2) Results of the calculations

The target of the next experiment is protein kinase C (PKC). The experiment can be described thus: Measurement of the activity to inhibit protein kinase C (PKC). In kind it is biochemical, rat. As to conditions: for Ki: ATP 1, 3, 5 and 10 μM, double reciprocal plotting, PKC from rat brain, read-out: PKC inhibiting activity in terms of Ki value. The protocol: Each of compounds 1 to 10 was used as an inhibitor for PKC. As a comparative compound, 1- 2-(6-benzothiazolesulfonylamino)ethyl!-4- 3-(phenoxy)propyl!piperazine dihydrochloride disclosed in International Patent Application Publication No. W092/14712 was used. Measurement of a PKC inhibiting activity of each of compounds 1 to 10 was conducted utilizing a kit for measuring PKC inhibiting activity (manufactured and sold by Medical and Biological Laboratories, Japan). PKC was isolated from a rat brain and purified by the method according to Inagaki et al. (Journal of Biochemistry, vol. 260, p.2922-2925, 1985). On the surface of each well of the 96-well plate of the measuring kit, a peptide which is a substrate for PKC was immobilized. To each of the wells was added a solution containing 25 mM Tris buffer (pH 7.5), 3 mM magnesium chloride, 1 mM calcium chloride, 0.1% 2-mercaptoethanol, 1 mg/ml bovine serum albumin, 50 μg/ml phosphatidylserine, 10 μg/ml PKC and 1 μM of ATP, thereby initiating the reaction. Substantially the same reaction as mentioned above was repeated three more times, except that the ATP concentration was changed to 3, 5 and 10 μM. 3 Minutes after the initiation of each of the reactions, 100 μl of an aqueous 20% phosphoric acid solution was added to each well of the individual plates to terminate the reaction. Each well was washed with TrPBS three times. 100 μl of the primary antibody included in the kit, which had been diluted 10-fold with TwPBS, was added to each of the washed wells, and allowed to stand at room temperature for 1 hour. Each well was washed with TrPBS three times. Then, as a secondary antibody, 100 μl of peroxydase-labeled anti-mouse IgG antibody (manufactured and sold by Bio-Rad laboratories, U.S.A.) which had been diluted 1000-fold with TwPBS was added to each well, and allowed to stand at room temperature for 1 hour. Each well was washed with TrPBS three times. To each well was added 100 μl of a coloring agent containing 2 mg/ml orthophenylenediamine and an aqueous 0.04% hydrogen peroxide solution. When the coloring proceeded satisfactorily, 30 μl of 4.5M sulfuric acid was added to each well to terminate the reaction. The absorbance of the reaction mixture in each well was determined using a microplate reader (manufactured and sold by Bio-Rad laboratories, u.s.a.). In order to measure the PKC inhibiting activity of each of compounds 1 to 10 and the comparative compound, each of the compounds having an appropriate concentration was individually added to the above-mentioned respective solutions having ATP concentrations of 1, 3, 5 and 10 μM and, then, the PKC activity was individually measured in terms of the absorbance in substantially the same manner as mentioned above. The PKC inhibiting activity in terms of inhibition constant (Ki) was individually obtained by double reciprocal plotting of the respective PKC activities obtained in the presence of each of compounds 1 to 10 and the comparative compound, and the respective PKC activities obtained in the absence of compounds 1 to 10 and the comparative compound.

The structures appear in SMILES notation. Where a name gives a salt, the structure may show the parent alone. Where only a bound is given, the exact number is not on record here.

T1 sequence (P11799 935-1906): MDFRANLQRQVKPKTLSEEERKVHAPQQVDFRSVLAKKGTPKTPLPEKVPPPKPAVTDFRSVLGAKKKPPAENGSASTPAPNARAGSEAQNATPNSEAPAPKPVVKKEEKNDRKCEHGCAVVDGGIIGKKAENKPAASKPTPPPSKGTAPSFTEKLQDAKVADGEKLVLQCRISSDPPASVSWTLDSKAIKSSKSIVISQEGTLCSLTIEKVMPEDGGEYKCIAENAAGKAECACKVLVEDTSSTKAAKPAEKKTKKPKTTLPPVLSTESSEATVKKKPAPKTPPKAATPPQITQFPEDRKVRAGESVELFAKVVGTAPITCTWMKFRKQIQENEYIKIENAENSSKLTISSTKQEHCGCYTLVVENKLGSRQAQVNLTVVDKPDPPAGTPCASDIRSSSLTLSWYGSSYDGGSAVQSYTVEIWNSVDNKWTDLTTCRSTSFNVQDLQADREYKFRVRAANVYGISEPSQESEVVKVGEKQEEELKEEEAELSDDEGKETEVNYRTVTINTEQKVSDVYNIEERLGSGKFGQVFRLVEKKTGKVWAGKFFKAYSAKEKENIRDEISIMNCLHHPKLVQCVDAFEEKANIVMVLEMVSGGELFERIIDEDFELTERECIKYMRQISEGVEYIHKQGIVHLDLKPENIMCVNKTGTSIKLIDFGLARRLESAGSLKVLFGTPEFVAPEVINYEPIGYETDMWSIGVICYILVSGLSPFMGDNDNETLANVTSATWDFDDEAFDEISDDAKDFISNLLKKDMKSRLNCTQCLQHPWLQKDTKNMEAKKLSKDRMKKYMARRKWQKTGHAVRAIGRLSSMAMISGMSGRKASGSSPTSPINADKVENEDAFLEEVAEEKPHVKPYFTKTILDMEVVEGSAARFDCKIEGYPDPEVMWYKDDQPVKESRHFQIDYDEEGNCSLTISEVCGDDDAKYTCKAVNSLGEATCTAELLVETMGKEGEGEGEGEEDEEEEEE

For the compound `O=S(=O)(NCCN1CCN(CCCOc2ccccc2)CC1)c1ccc2ncsc2c1` [1-2-(6-benzothiazolesulfonylamino)ethyl!-4-3-(phenoxy)propyl!piperazine], in the experiment on bronchial smooth muscle, the “ability to relax a bronchial smooth muscle by its antihistaminic activity” value is listed as “has the ability to relax a bronchial smooth muscle by its antihistaminic activity”.
As for `O=S(=O)(NCCN1CCN(CCCOc2ccccc2)CC1)c1ccc2ncsc2c1` [Comparative compound, 1-2-(6-benzothiazolesulfonylamino)ethyl!-4-3-(phenoxy)propyl!piperazine dihydrochloride, reference compound], the Ki (in experiment [1]; on protein kinase C (PKC)) was more than 200 µM each time. The “activity to inhibit myosin light chain kinase (in words)” value in experiment [1] (conclusion from Table 1) is reported as “no activity to inhibit the protein kinases”. Also, the Emax in experiment [2] was determined as 6.8%. Moreover, the “ability to relax a bronchial smooth muscle of a tracheal specimen (in words)” value in experiment [2] (KCl-induced contraction, conclusion from Table 2) is “no ability to relax such a bronchial smooth muscle”. In the experiment on protein kinase C (PKC) (conclusion from Table 1), the “activity to inhibit protein kinase C (in words)” value is “no activity to inhibit the protein kinases”.
As to `O=S(=O)(c1cccc2ncsc12)N1CCCNCC1` [Compound 1, 1-(7-benzothiazolesulfonyl)homopiperazine hydrochloride], the figures for the Ki (in experiment [1]; on protein kinase C (PKC)) were 80 µM and 7 µM, respectively. In addition, in experiment [2], the Emax is 30.5%.
Taken in the same sequence, the figures for `O=S(=O)(c1cccc2ncsc12)N1CCNCC1` [Compound 2, 1-(7-benzothiazolesulfonyl)piperazine hydrochloride] were 50 µM, 5 µM and 24%.
For `CC1CNCCN1S(=O)(=O)c1cccc2ncsc12` (stereo not shown) [Compound 3, 1-(7-benzothiazolesulfonyl)-2-methylpiperazine hydrochloride] the same measures were 90 µM, 15 µM and 21.1%.
For `NCCNS(=O)(=O)c1cccc2ncsc12` [Compound 4, 1-(7-benzothiazolesulfonyl)ethylenediamine hydrochloride] the same measures were 75 µM, 5 µM and 33%.
Turning to `CNCCNS(=O)(=O)c1cccc2ncsc12` [Compound 5, 1-(7-benzothiazolesulfonyl)-4-methylethylenediamine hydrochloride], the Ki – broadly, a measure of affinity in units of concentration, obtained from inhibition or displacement – amounted to 120 µM in experiment [1] and 35 µM on protein kinase C (PKC). Also, the Emax in experiment [2] came to 22%.
As for `O=S(=O)(c1ccc2ncsc2c1)N1CCNCC1` [Compound 6, 1-(6-benzothiazolesulfonyl)piperazine hydrochloride], the Ki in experiment [1] was 25 µM; at protein kinase C (PKC), 15 µM. Also, in experiment [2], the Emax was determined as 27.2%.
Taken in the same sequence, the figures for `O=S(=O)(NCCNCc1ccc2c(c1)OCO2)c1cccc2ncsc12` [Compound 7, N-2-(3,4-methylenedioxybenzylamino)ethyl!-7-benzothiazolesulfonamide hydrochloride] were 50 µM, 6 µM and 96.8%.
For `O=S(=O)(NCCNCc1cccc(Cl)c1)c1cccc2ncsc12` [Compound 8, N-2-(3-chlorobenzylamino)ethyl!-7-benzothiazolesulfonamide hydrochloride] the same measures were 55 µM, 5 µM and 85.7%.
Taken in the same sequence, the figures for `CC(NCCNS(=O)(=O)c1cccc2ncsc12)c1cccc(Cl)c1` (stereo not shown) [Compound 9, N-{2-1-(3-chlorophenyl)ethyl!aminoethyl}-7-benzothiazolesulfonamide hydrochloride] were 90 µM, 25 µM and 74.6%.
For the compound `O=S(=O)(NCCNCc1cccc(F)c1)c1cccc2ncsc12` [Compound 10, N-2-(3-fluorobenzylamino)ethyl!-7-benzothiazolesulfonamide hydrochloride], the inhibitory constant (Ki) in experiment [1] was determined as 55 µM; on protein kinase C (PKC), 7 µM. In experiment [2], the Emax turned out to be 78%.
